ChEMBL document CHEMBL5523702, “Synthesis and structure-activity optimization of azepane-containing derivatives as PTPN2/PTPN1 inhibitors” (Eur J Med Chem, 2024)
≈ marks a conversion by molar mass, not a printed value.

Columns and labels:
[1] = biological target: T1, Tyrosine-protein phosphatase non-receptor type 2 (Homo sapiens, UniProt P17706); assay: Inhibition of human PTPN2 using DiFMUP as substrate by fluorescence based phosphatase assay
T1 sequence (P17706 whole entry): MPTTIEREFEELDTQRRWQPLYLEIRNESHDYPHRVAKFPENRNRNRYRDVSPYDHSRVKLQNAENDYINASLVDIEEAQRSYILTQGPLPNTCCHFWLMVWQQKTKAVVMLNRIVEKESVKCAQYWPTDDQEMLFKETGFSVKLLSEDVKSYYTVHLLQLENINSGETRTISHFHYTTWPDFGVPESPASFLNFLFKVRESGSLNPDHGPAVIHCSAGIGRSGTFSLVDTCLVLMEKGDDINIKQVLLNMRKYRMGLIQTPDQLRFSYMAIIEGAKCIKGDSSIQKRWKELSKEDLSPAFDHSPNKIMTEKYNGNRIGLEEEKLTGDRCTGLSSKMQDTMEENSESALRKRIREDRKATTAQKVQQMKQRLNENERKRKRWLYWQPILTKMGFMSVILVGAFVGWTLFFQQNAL

[2] = AUC (0 to t) in mouse at 10 mg/kg, po; format: ADME, organism-based; details: in vivo
[3] = Half life in mouse at 10 mg/kg, po; format: ADME, organism-based; details: in vivo
[4] = Cmax in mouse at 10 mg/kg, po; format: ADME, organism-based; details: in vivo
[5] = Inhibition of PTPN2 in IFN-gamma induced mouse B16-F10 cells; format: cell-based; details: Mus musculus, B16-F10
[6] = Half life in dog at 2 mg/kg, po; format: ADME, organism-based, Canis lupus familiaris; details: in vivo
[7] = biological target: T1, Tyrosine-protein phosphatase non-receptor type 2; assay: Binding affinity to human PTPN2 assessed as dissociation constant measured upto 300 secs by SPR analysis
[8] = Half life in mouse at 50 mg/kg, po; format: ADME, organism-based; details: in vivo
[9] = AUC (0 to t) in dog at 2 mg/kg, po; format: ADME, organism-based, Canis lupus familiaris; details: in vivo
[10] = Oral bioavailability in mouse at 10 mg/kg; format: ADME, organism-based; details: in vivo
[11] = Clearance in dog assessed as liver blood flow at 1 mg/kg, iv; format: ADME, organism-based, Canis lupus familiaris; details: in vivo
[12] = Oral bioavailability in mouse at 50 mg/kg; format: ADME, organism-based; details: in vivo
[13] = system: MC-38; assay: Antitumor activity in mouse MC38 cells xenografted in C57BL/6J mouse model assessed as tumor growth inhibition at 30 mg/kg, po BID administered for 19 days relative to control; format: functional; details: MC-38, 456 h, time 19 day, read-out: TGI
[14] = Cmax in rat at 10 mg/kg, po; format: ADME, organism-based; details: in vivo
[15] = Plasma protein binding in human assessed as unbound fraction; format: ADME, cell-free
[16] = biological target: T2, Tyrosine-protein phosphatase non-receptor type 1 (Homo sapiens, UniProt P18031); assay: Inhibition of human PTP1B
T2 sequence (P18031 whole entry): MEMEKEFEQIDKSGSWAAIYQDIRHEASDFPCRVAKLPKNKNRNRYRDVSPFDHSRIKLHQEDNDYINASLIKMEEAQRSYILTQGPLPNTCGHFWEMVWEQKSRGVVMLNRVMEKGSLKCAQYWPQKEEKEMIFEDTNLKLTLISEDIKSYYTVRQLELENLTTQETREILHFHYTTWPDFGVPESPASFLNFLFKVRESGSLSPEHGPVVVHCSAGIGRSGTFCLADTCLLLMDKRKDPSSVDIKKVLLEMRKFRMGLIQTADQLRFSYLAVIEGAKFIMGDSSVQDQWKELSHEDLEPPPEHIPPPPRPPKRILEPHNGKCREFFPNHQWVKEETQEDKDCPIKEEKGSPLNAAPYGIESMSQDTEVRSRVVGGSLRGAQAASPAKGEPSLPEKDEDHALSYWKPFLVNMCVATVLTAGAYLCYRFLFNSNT

[17] = Half life in rat at 10 mg/kg, po; format: ADME, organism-based; details: in vivo
[18] = Cmax in dog at 2 mg/kg, po; format: ADME, organism-based, Canis lupus familiaris; details: in vivo
[19] = Volume of distribution at steady state in rat at 1 mg/kg, iv; format: ADME, organism-based; details: in vivo, read-out: Vdss
[20] = Cmax in mouse at 50 mg/kg, po; format: ADME, organism-based; details: in vivo
[21] = Volume of distribution at steady state in mouse at 1 mg/kg, iv; format: ADME, organism-based; details: in vivo, read-out: Vdss
[22] = Clearance in rat assessed as liver blood flow at 1 mg/kg, iv; format: ADME, organism-based; details: in vivo
[23] = Plasma protein binding in rat assessed as unbound fraction; format: ADME, cell-free
[24] = Clearance in mouse assessed as liver blood flow at 1 mg/kg, iv; format: ADME, organism-based; details: in vivo
[25] = AUC (0 to t) in mouse at 50 mg/kg, po; format: ADME, organism-based; details: in vivo
[26] = Volume of distribution at steady state in dog at 1 mg/kg, iv; format: ADME, organism-based, Canis lupus familiaris; details: in vivo, read-out: Vdss
[27] = AUC (0 to t) in rat at 10 mg/kg, po; format: ADME, organism-based; details: in vivo
[28] = Plasma protein binding in mouse assessed as unbound fraction; format: ADME, cell-free
[29] = Oral bioavailability in rat at 10 mg/kg; format: ADME, organism-based; details: in vivo
[30] = Oral bioavailability in dog at 2 mg/kg; format: ADME, organism-based, Canis lupus familiaris; details: in vivo
[31] = Toxicity in C57BL/6J mouse assessed as effect on body weight at 30 mg/kg, po BID measured after 19 days; format: organism-based; details: in vivo, 456 h, time 19 day
[32] = Kinetic solubility of the compound at pH 7.4; details: buffer
[33] = Apparent permeability of compound in human Caco-2 cells across apical to basolateral side
[34] = Apparent permeability of compound in human Caco-2 cells across basolateral to apical side
[35] = AUC (0 to t) in mouse at 1 mg/kg, iv; format: ADME, organism-based; details: in vivo
[36] = Cmax in mouse at 1 mg/kg, iv; format: ADME, organism-based; details: in vivo
[37] = Half life in mouse at 1 mg/kg, iv; format: ADME, organism-based; details: in vivo

**Q.** For `O=C1CN(c2c(O)cc3c(c2F)CCN(CCCC2CC2)CC3)S(=O)(=O)N1`, which IC50 [1] is on record?
**A.** 4.5 nM

**Q.** What about the AUC(0-t) [2] of the same compound?
**A.** 3480 ng·h/mL

**Q.** What about the half-life [3] of the same compound?
**A.** 4.55 h

**Q.** And the Cmax [4]?
**A.** 621 ng/mL

**Q.** And the IC50 [5]?
**A.** 247 nM

**Q.** With `CCN1CCc2cc(O)c(N3CC(=O)NS3(=O)=O)c(F)c2CC1` as the compound, how does the half-life [6] read?
**A.** 1.31 h

**Q.** And the Kd [7]?
**A.** 8.7 nM

**Q.** What about the half-life [8] of the same compound?
**A.** 2.1 h

**Q.** And the AUC(0-t) [9]?
**A.** 1430 ng·h/mL

**Q.** And the bioavailability [10]?
**A.** 140%

**Q.** And the LBF [11]?
**A.** 14.1%

**Q.** And the bioavailability [12]?
**A.** 93%

**Q.** What about the inhibition in vivo at 30 mg/kg [13] of the same compound?
**A.** 89%

**Q.** What about the Cmax [14] of the same compound?
**A.** 368 ng/mL

**Q.** And the IC50 [1]?
**A.** 9.3 nM

**Q.** What about the fraction unbound [15] of the same compound?
**A.** 0.804

**Q.** What about the IC50 [16] of the same compound?
**A.** 3.09 nM

**Q.** What about the half-life [17] of the same compound?
**A.** 2.37 h

**Q.** And the AUC(0-t) [2]?
**A.** 20900 ng·h/mL

**Q.** What about the Cmax [18] of the same compound?
**A.** 402 ng/mL

**Q.** And the Vd [19]?
**A.** 0.26 L/kg

**Q.** What about the Cmax [20] of the same compound?
**A.** 17800 ng/mL

**Q.** And the half-life [3]?
**A.** 2.37 h

**Q.** And the Cmax [4]?
**A.** 4750 ng/mL

**Q.** What about the Vd [21] of the same compound?
**A.** 0.4 L/kg

**Q.** And the LBF [22]?
**A.** 15%

**Q.** What about the fraction unbound [23] of the same compound?
**A.** 0.815

**Q.** What about the LBF [24] of the same compound?
**A.** 12.7%

**Q.** And the AUC(0-t) [25]?
**A.** 69200 ng·h/mL

**Q.** What about the IC50 [5] of the same compound?
**A.** 212 nM

**Q.** What about the Vd [26] of the same compound?
**A.** 0.35 L/kg

**Q.** What about the AUC(0-t) [27] of the same compound?
**A.** 1940 ng·h/mL

**Q.** And the fraction unbound [28]?
**A.** 0.884

**Q.** And the bioavailability [29]?
**A.** 19%

**Q.** What about the bioavailability [30] of the same compound?
**A.** 19%

**Q.** And the Activity [31]?
**A.** Non-Toxic

**Q.** What does the source list for `O=C1CN(c2c(O)cc3c(c2F)CCN(CC2CC2)CC3)S(=O)(=O)N1`?
**A.** solubility kinetic [32]: 202 µM (≈ 74.6 µg/mL); IC50 [1]: 6.04 nM; fraction unbound [15]: 0.638; AUC(0-t) [2]: 5140 ng·h/mL; half-life [3]: 4.34 h; Cmax [4]: 899 ng/mL; Papp A→B [33]: 0.28 ×10⁻⁶ cm/s; Papp B→A [34]: 0.18 ×10⁻⁶ cm/s; IC50 [5]: 399 nM; fraction unbound [28]: 0.801

**Q.** With `O=C1CN(c2c(O)cc3c(c2F)CCN(CC(F)F)CC3)S(=O)(=O)N1` as the compound, how does the IC50 [1] read?
**A.** 100 nM

**Q.** And the IC50 [5]?
**A.** 5330 nM

**Q.** With `O=C1CN(c2c(O)cc3c(c2F)CCNCC3)S(=O)(=O)N1` as the compound, how does the IC50 [1] read?
**A.** 19.7 nM

**Q.** And the IC50 [5]?
**A.** 350 nM

**Q.** What does the source list for `CN1CCc2cc(O)c(N3CC(=O)NS3(=O)=O)c(F)c2CC1`?
**A.** AUC(0-t) [35]: 1490 ng·h/mL; Cmax [36]: 3200 ng/mL; half-life [37]: 0.9 h; IC50 [1]: 4.5 nM; fraction unbound [15]: 0.998; AUC(0-t) [2]: 7980 ng·h/mL; half-life [3]: 2.22 h; Cmax [4]: 2290 ng/mL; Papp A→B [33]: < 0.48 ×10⁻⁶ cm/s; fraction unbound [23]: 0.874; IC50 [5]: 461 nM; fraction unbound [28]: 0.852

**Q.** For `CC(C)N1CCc2cc(O)c(N3CC(=O)NS3(=O)=O)c(F)c2CC1`, which IC50 [1] is on record?
**A.** 9.2 nM

**Q.** And the IC50 [5]?
**A.** 378 nM

**Q.** For `O=C1CN(c2c(O)cc3c(c2F)CCN(CCC2CC2)CC3)S(=O)(=O)N1`, which IC50 [1] is on record?
**A.** 4.3 nM

**Q.** What about the AUC(0-t) [2] of the same compound?
**A.** 1320 ng·h/mL

**Q.** And the half-life [3]?
**A.** 4.64 h

**Q.** What about the Cmax [4] of the same compound?
**A.** 328 ng/mL

**Q.** What about the IC50 [5] of the same compound?
**A.** 117 nM
